In PubChem BioAssay AID1645864 (Buhrlage Lab, Dana-Farber Cancer Institute and Novartis …, 2021):
Activity calls are given as the source filed them.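 The calls were made as follows: active = maximal inhibition of USP17 at or above 30% in the confirmation dose-response, a value not among the printed readouts; inactive = the rest.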

The compounds below were run against Ubiquitin carboxyl-terminal hydrolase 17-like protein 5 (Homo sapiens) (UniProt A8MUK1) (assay: ubiquitin-specific protease 17 inhibitors, concentration series, biochemical, verification of primary actives (AID 1645864)). Settings: purified USP17, ubiquitin-rhodamine cleavage fluorescence, 3 h.
Ubiquitin carboxyl-terminal hydrolase 17-like protein 5 (Homo sapiens), sequence (A8MUK1 whole entry, looked up): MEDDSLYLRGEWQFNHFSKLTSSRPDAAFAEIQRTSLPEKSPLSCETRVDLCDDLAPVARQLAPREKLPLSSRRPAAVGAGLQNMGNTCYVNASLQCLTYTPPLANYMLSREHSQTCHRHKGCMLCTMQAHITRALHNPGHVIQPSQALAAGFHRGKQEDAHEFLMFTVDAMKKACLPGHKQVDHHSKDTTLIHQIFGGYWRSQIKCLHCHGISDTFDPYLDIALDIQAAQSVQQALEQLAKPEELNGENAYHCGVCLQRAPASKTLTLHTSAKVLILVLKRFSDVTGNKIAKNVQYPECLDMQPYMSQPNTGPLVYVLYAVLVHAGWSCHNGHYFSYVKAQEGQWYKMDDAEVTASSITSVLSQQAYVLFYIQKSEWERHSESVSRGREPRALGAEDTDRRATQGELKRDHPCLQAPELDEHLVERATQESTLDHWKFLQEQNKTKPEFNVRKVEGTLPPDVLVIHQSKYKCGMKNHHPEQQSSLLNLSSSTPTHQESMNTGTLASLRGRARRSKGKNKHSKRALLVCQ
In the case of `CCC1=C(c2ccc(C)cc2)S(=O)(=O)NC1=NCC(=O)NCc1ccccc1F`, the IC50 is reported as 35.3 µM.
Compound `Cc1cccc(OCCn2c(CCNC(=O)C3CCCCC3)nc3ccccc32)c1` has an IC50 of 28.6 µM.
`O=C(CN1C=NC2=NS(=O)(=O)c3ccccc3N21)Nc1cc(F)ccc1F` showed an IC50 of 33.4 µM.
`O=C(COc1ncnc2ccccc12)Nc1ccc2c(c1)OC1(CCCC1)O2` gave an IC50 of 35.2 µM.
For `CCc1ccc2[nH]c(=O)c(CN(CCc3ccc(OC)c(OC)c3)C(=O)Nc3ccccc3)cc2c1`, the IC50 was > 50 µM (inactive).
Work on `O=C(CNc1nc(Nc2ccccc2F)nc(Nc2ccccc2F)n1)Nc1ccccc1` yielded an IC50 of 35.5 µM.
In the case of `Cc1csc2ncc(C(=O)N3CCN(c4ccccc4F)CC3)c(=O)n12`, the IC50 is reported as > 50 µM (inactive).
`CCC(C)c1ccc(O[C@@H]2O[C@@H]3COC(c4ccccc4)O[C@H]3[C@H](O)[C@H]2NC(C)=O)cc1` (stereo not given in full) gave an IC50 of 16.6 µM.
With `Cc1ccc2nc(NC(=O)C3CCCN3S(=O)(=O)c3ccc4c(c3)OCCO4)sc2c1` (stereo not given) the IC50 was > 50 µM (inactive).
`COCCNC(=O)c1ccc(-c2ccc(N3CCCCC3)nc2)cc1` showed an IC50 of 26.8 µM.
With `O=C(NCc1ccc(F)cc1)c1cc(-n2cnnn2)ccc1Cl` the IC50 was 25.4 µM.
`CC(=O)c1cccc(NC(=O)c2ccc(N3CCCCC3)nn2)c1` was tested, and the IC50 was 43 µM.
`Cc1ccc(Cn2nnc(-c3ccccc3Cl)n2)cc1` was tested, and the IC50 was > 50 µM (inactive).
In the case of `Cc1noc(-c2cc(=O)n(CC(=O)NCc3ccccc3F)c3ccccc23)n1`, the IC50 is reported as 4.88 µM.
With `COc1cccc(NC(=O)C2CCN(C(=O)c3cc(-c4cccnc4)n[nH]3)CC2)c1` the IC50 was > 50 µM (inactive).
Work on `Cc1ccc(NC(=O)c2sc(=S)n(CCc3ccccc3)c2N)cc1` yielded an IC50 of 2.42 µM.
Work on `COc1ccc(CN2CCCC23CCCN(C(=O)CCc2cccnc2)C3)cc1F` (stereo not given) yielded an IC50 of 33.6 µM.
`COc1ccc(C2CC(c3ccccc3)N(C(=O)C3CC3)c3ncnn32)cc1` (stereo not given) was tested, and the IC50 was > 50 µM (inactive).
In the case of `CCn1c(=N)n(CCOc2ccc(F)cc2)c2ccccc21`, the IC50 is reported as > 50 µM (inactive).
In the case of `Cc1ccc(CNC(=O)c2cnc3ccccc3n2)cc1`, the IC50 is reported as > 50 µM (inactive).
`CCOc1ccccc1NC(=O)Cn1c(-c2ccc3c(c2)OCO3)cn(-c2ccc(OC)cc2)c1=O` was tested, and the IC50 was > 50 µM (inactive).
For `Cn1c(=O)c2c(ncn2CC(=O)NC2CCCc3ccccc32)n(C)c1=O` (stereo not given), the IC50 was > 50 µM (inactive).
With `Cn1c2ccccc2c(=O)c2c(=O)n(Cc3ccccc3)c(-c3ccccc3F)nc21` the IC50 was 0.127 µM.
`Cc1cc(O)c(Oc2cc(C)cc(O)c2O)c(O)c1` gave an IC50 of 26.6 µM.
`CCOc1ccc2c(c1)c(=O)c(C(=O)c1ccccc1)cn2CC(=O)Nc1ccc2c(c1)OCCO2` was tested, and the IC50 was 20.4 µM.
Compound `O=C(CCCC(=O)c1ccccc1)Nc1ccc(F)cc1` has an IC50 of 29.7 µM.
For `COc1ccc(CCn2cnc3c4ccccc4n(C)c3c2=O)cc1OC`, the IC50 was > 50 µM (inactive).
`COc1ccc(CC(NC(C)=O)C(=O)NC2CCN(c3c(Cc4ccccc4)c(C)nc4ncnn34)CC2)cc1OC` (stereo not given) was tested, and the IC50 was > 50 µM (inactive).
For `O=C(COc1ccc(Cl)cc1)Nc1noc(-c2ccccc2)n1`, the IC50 was 22.6 µM.
With `CCC(C)NC(=O)Cn1c(=O)n(-c2ccccc2)c(=O)c2ccc(C(=O)NCc3ccco3)cc21` (stereo not given) the IC50 was 45 µM.
For `CC(=O)Nc1ccc(-n2cnc(C(=O)NCc3ccc(C)cc3)c2)nc1`, the IC50 was 27.1 µM.
Work on `O=C(c1ccco1)N1CCC2(CC1)CC1(CO2)Nc2ccccc2-n2cccc21` (stereo not given) yielded an IC50 of 20.6 µM.
`CCc1ccc(Nc2cc(C(=O)NCCCOC(C)C)c3ccccc3n2)cc1` showed an IC50 of 10.7 µM.
`Cc1ccc2c(c1C)NC(=O)[C@]21[C@@H]2C(=O)N(c3cc(Cl)ccc3Cl)C(=O)[C@@H]2[C@@H]2CCCN21` was tested, and the IC50 was > 50 µM (inactive).
With `Cc1c(Cl)cccc1NC(=O)Cn1c(=O)c2ccccc2n2nncc12` the IC50 was > 50 µM (inactive).
`CCNc1oc(-c2ccc(S(=O)(=O)N3CCCCC3)cc2)nc1C#N` gave an IC50 of 24.2 µM.
`Cc1ccc(Cl)cc1NC(=O)c1cc(-c2ccccn2)n[nH]1` gave an IC50 of 7.13 µM.
`O=c1[nH]cccc1NS(=O)(=O)c1ccc(F)cc1` was tested, and the IC50 was > 50 µM (inactive).
`CCC(CC)n1[nH]c(=O)c2c1NC(=O)CSC2c1ccc2c(c1)OCO2` (stereo not given) gave an IC50 of 18.5 µM.
`CC1CCN(Cc2nnc(-c3cn(CC(=O)NC4CCCCC4)c4ccccc34)o2)CC1` was tested, and the IC50 was > 50 µM (inactive).
`CCOC(=O)C1C(c2ccc(Br)cc2)C2(C(=O)c3ccccc3C2=O)C2C=Cc3ccccc3N12` (stereo not given) was tested, and the IC50 was > 50 µM (inactive).
`COc1ccccc1-c1nc2c3c(C)c(C)n(Cc4cccnc4)c3ncn2n1` was tested, and the IC50 was > 50 µM (inactive).
`CC1CCc2c(sc3ncnc(OCc4cccc([N+](=O)[O-])c4)c23)C1` (stereo not given) was tested, and the IC50 was > 50 µM (inactive).
`COc1ccc(-c2nc(Cn3nnc(C(=O)Nc4ccc(C)c(C)c4)c3N)c(C)o2)cc1` showed an IC50 of 2.24 µM.
With `O=C(c1cc2ccccc2o1)N1CC=C(c2ccccc2)CC1` the IC50 was > 50 µM (inactive).
Compound `Cc1ccc(NC(=O)/C=C/c2cccc(C(F)(F)F)c2)c(O)c1` has an IC50 of 8.3 µM.
With `CCn1c(Cn2cccn2)nc2cc(NC(=O)c3ccc(F)cc3)ccc21` the IC50 was > 50 µM (inactive).
For `CSc1nc(SCC(N)=O)c2c3c(sc2n1)COC(C)(C)C3`, the IC50 was 36.9 µM.
`Nc1c(C(=O)NCCc2ccccc2)nnn1-c1ccc(F)cc1` was tested, and the IC50 was 40.2 µM.
`O=C(CSc1nc2cc(S(=O)(=O)Nc3ccccc3Cl)ccc2o1)Nc1ccc(N2CCOCC2)cc1` gave an IC50 of 48 µM.
